# From US20030032824A1, “Meiosis regulating compounds” (priority 1996, published 2003)
# How the values were obtained:
# [1] = tested on: cumulus enclosed oocytes (CEO); test: Oocyte test, activation of meiosis in cumulus enclosed oocytes (CEO) cultured in Hx-medium; format: cell-based, mice
# Procedure: (§1) Oocytes were obtained from immature female mice (C57BI/6J×DBA/2J F1-hybrids, Bomholtgaard, Denmark) weighing 13-16 grams, that were kept under controlled lighting and temperature. The mice received an intra-peritoneal injection of 0.2 ml gonadotropins (Gonal-F, Serono, Solna, Sweden, containing 20 IU FSH, alternatively, Puregon, Organon, Swords, Ireland containing 20 IU FSH) and 48 hours later the animals were killed by cervical dislocation.
# (§2) The ovaries were dissected out and the oocytes were isolated in Hx-medium (see below) under a stereo microscope by manual rupture of the follicles using a pair of 27 gauge needles. Spherical oocytes displaying an intact germinal vesicle (GV) were divided in cumulus enclosed oocytes (CEO) and naked oocytes (NO) and placed in α-minimum essential medium (α-MEM without ribonucleosides, Gibco BRL, Cat. No. 22561) supplemented with 3 mM hypoxanthine (Sigma Cat. No. H-9377), 8 mg/ml Human Serum Albumin (HSA, State Serum Institute, Denmark), 0.23 mM pyruvate (Sigma, Cat. No S-8636), 2 mM glutamine (Flow Cat. No. 16-801), 100 IU/mi penicillin and 100 μg/ml streptomycin (Flow, Cat No. 16-700). This medium was designated Hx-medium.
# (§3) The oocytes were rinsed three times in Hx-medium and oocytes of uniform size were divided into groups of CEO and NO. CEO and NO were cultured in 4-well multidishes (Nunclon, Denmark) in which each well contained 0.4 ml of Hx-medium and 35-45 oocytes. […]
# (§4) By the end of the culture period, the number of oocytes with germinal vesicle (GV) or germinal vesicle breakdown (GVB) and those with polar body (PB) was counted using a stereo microscope or an inverted microscope with differential interference contrast equipment. The percentage of oocytes with GVB per total number of oocytes and the percentage of oocytes with PB per total number of oocytes was calculated in the test cultures and compared to the control culture.
# naked oocytes (NO) [2] = test: Oocyte test, activation of meiosis in naked oocytes (NO) cultured in Hx-medium; format: cell-based, mice
# Procedure: as §1, §2, §3, §4
# CEO and NO = CEO and NO in vitro, previously shown; cited from earlier work
# [3] = tested on: cumulus enclosed oocytes (CEO); test: Oocyte test, inhibition of FF-MAS induced meiosis in cumulus enclosed oocytes (CEO); format: cell-based, mice
# Procedure: as §2
# (§5) The cultures were performed at 37° C. and 100% humidity with 5% CO2 in air. The culture time was 22-24 hours.
# as §4
# (§6) Germinal vesicle (GV) oocytes were obtained from immature FSH treated female mice using the same methods as described in Example 1 (see above). The oocytes were rinsed three times in Hx-medium and oocytes of uniform size were divided into groups of CEO and NO. […] CEO and NO were cultured in Hx-medium supplemented with 0.7-7.0 μM FF-MAS in co-culture with the test compounds in different concentrations in 4-well multidishes (Nunclon, Denmark) in which each well contained 0.4 ml of Hx-medium and 35-45 oocytes. One control (i.e., 35-45 oocytes cultured in Hx-medium containing FF-MAS with no addition of test compound) was always run simultaneously with the test cultures, which were supplemented with different concentrations of the compounds to be tested.
# naked oocytes (NO) [4] = test: Oocyte test, inhibition of FF-MAS induced meiosis in naked oocytes (NO); format: cell-based, mice
# Procedure: as §2, §5, §4, §6
# [5] = CEO, test concentration 7.0 μM, culture 22-24 hours
# [6] = NO, test concentration 7.0 μM, culture 22-24 hours
# [7] = FF-MAS 0.7 μM alone (control, no 22R)
# [8] = FF-MAS 7 μM alone (control, no 22R)
# [9] = FF-MAS 1.2 μM alone (control, no 22R)
# [10] = FF-MAS 0.7 μM + 22R 25 μM (ratio 1:36)
# [11] = FF-MAS 7 μM + 22R 12.5 μM (ratio 1:2)
# [12] = FF-MAS 0.7 μM + 22R 13 μM (ratio 1:19)
# [13] = FF-MAS 1.2 μM + 22R 25 μM (ratio 1:20)
compound,measurement,setting,value
"CC(C)CCC[C@@H](C)[C@H]1CC[C@H]2[C@@H]3CC=C4[C@@H](O)[C@@H](O)CC[C@]4(C)[C@H]3CC[C@]12C [cholest-5-en-3β,4β-diol]",% GVB,[1]; [5],44.4%
same,% PB,[1]; [5],25.9%
same,induction of meiosis,[1]; cumulus enclosed oocyte cultured in vitro,induces meiosis
same,% GVB,naked oocytes (NO) [2]; [6],50.2%
same,% PB,naked oocytes (NO) [2]; [6],17.2%
same,induction of meiosis,naked oocytes (NO) [2]; naked oocyte cultured in vitro,induces meiosis
"CC(C)=CCC[C@@H](C)[C@H]1CC=C2C3=C(CC[C@@]21C)[C@@]1(C)CC[C@H](O)C(C)(C)C1CC3 (stereo partly drawn) [FF-MAS, 4,4-Dimethylcholest-8,14,24-trien-3β-ol, reference compound]",induction of meiosis,CEO and NO,induce meiosis in CEO and NO in vitro
same,% GVB,[3]; [7],21.7%
same,% PB,[3]; [7],10.8%
same,% GVB,[3]; [8],39.0%
same,% PB,[3]; [8],18.9%
same,% GVB,naked oocytes (NO) [4]; [7],33.0%
same,% PB,naked oocytes (NO) [4]; [7],7.8%
same,% GVB,naked oocytes (NO) [4]; [9],19.5%
same,% PB,naked oocytes (NO) [4]; [9],9.5%
"CC(C)CC[C@@H](O)[C@@H](C)[C@H]1CC[C@H]2[C@@H]3CC=C4C[C@@H](O)CC[C@]4(C)[C@H]3CC[C@]12C [Example 22R, cholest-5-en-3β,(22R)-diol]",% GVB,[3]; [10],6.9%
same,% PB,[3]; [10],3.4%
same,% GVB,[3]; [11],21%
same,% PB,[3]; [11],3.5%
same,antagonism of FF-MAS induced resumption of meiosis,[3]; co-culture with FF-MAS,antagonises the FF-MAS induced resumption of meiosis in a dose-related manner
same,% GVB,naked oocytes (NO) [4]; [12],16.9%
same,% PB,naked oocytes (NO) [4]; [12],0%
same,% GVB,naked oocytes (NO) [4]; [10],2.9%
same,% PB,naked oocytes (NO) [4]; [10],0%
same,% GVB,naked oocytes (NO) [4]; [13],4.6%
same,% PB,naked oocytes (NO) [4]; [13],0%
same,antagonism of FF-MAS induced resumption of meiosis,naked oocytes (NO) [4]; co-culture with FF-MAS,antagonises the FF-MAS induced resumption of meiosis in a dose-related manner
